Tests used:
Assay type in all cases: in vivo
[1] = test system: foxtail, giant (giant foxtail, Setaria faberii); assay: Test A postemergence application, visual injury rating; settings: Setaria faberi, post-emergence, 240 h, 0 to 100 scale, 0 no effect, 100 complete control, read-out: Foxtail, Giant plant response rating; for pest or weed control at 125 g/ha: 125 g ai/ha; for pest or weed control at 500 g/ha: 500 g ai/ha
Summary of the method: (§1)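 Compounds in a surfactant-containing solvent were applied as a directed soil spray preemergence, or postemergence to plants 2-10 cm tall at the one- to two-leaf stage, in loam-sand blend. After about 10 d in the greenhouse, injury was rated visually against untreated controls on a 0-100 scale (100 = complete control).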

[2] = test system: wheat (Triticum aestivum); assay: as above; settings: Triticum aestivum, post-emergence, 240 h, 0 to 100 scale, 0 no effect, 100 complete control, read-out: Wheat plant response rating; for plant injury at 125 g/ha: 125 g ai/ha; for plant injury at 500 g/ha: 500 g ai/ha
Summary of the method: as §1

corn (Zea mays) = assay: as above; settings: Zea mays, post-emergence, 240 h, 0 to 100 scale, 0 no effect, 100 complete control, read-out: Corn plant response rating; for plant injury at 125 g/ha: 125 g ai/ha; for plant injury at 500 g/ha: 500 g ai/ha
Summary of the method: as §1

[3] = test system: ryegrass, It. (Italian ryegrass, Lolium multiflorum); assay: as above; settings: Lolium multiflorum, post-emergence, 240 h, 0 to 100 scale, 0 no effect, 100 complete control, read-out: Ryegrass, It. plant response rating; for pest or weed control at 125 g/ha: 125 g ai/ha; for pest or weed control at 500 g/ha: 500 g ai/ha
Summary of the method: as §1

[4] = test system: blackgrass (Alopecurus myosuroides); assay: as above; settings: Alopecurus myosuroides, post-emergence, 240 h, 0 to 100 scale, 0 no effect, 100 complete control, read-out: Blackgrass plant response rating; for pest or weed control at 125 g/ha: 125 g ai/ha; for pest or weed control at 500 g/ha: 500 g ai/ha
Summary of the method: as §1

[5] = test system: ragweed (common ragweed, Ambrosia elatior); assay: as above; settings: Ambrosia artemisiifolia, post-emergence, 240 h, 0 to 100 scale, 0 no effect, 100 complete control, read-out: Ragweed plant response rating; for pest or weed control at 125 g/ha: 125 g ai/ha; for pest or weed control at 500 g/ha: 500 g ai/ha
Summary of the method: as §1

kochia (Kochia scoparia) [6] = assay: as above; settings: Bassia scoparia, post-emergence, 240 h, 0 to 100 scale, 0 no effect, 100 complete control, read-out: Kochia plant response rating; for pest or weed control at 125 g/ha: 125 g ai/ha; for pest or weed control at 500 g/ha: 500 g ai/ha
Summary of the method: as §1

[7] = test system: barnyardgrass (Echinochloa crus-galli); assay: as above; settings: Echinochloa crus-galli, post-emergence, 240 h, 0 to 100 scale, 0 no effect, 100 complete control, read-out: Barnyardgrass plant response rating; for pest or weed control at 125 g/ha: 125 g ai/ha; for pest or weed control at 500 g/ha: 500 g ai/ha
Summary of the method: as §1

[8] = test system: galium (catchweed bedstraw, Galium aparine); assay: as above; settings: Galium, post-emergence, 240 h, 0 to 100 scale, 0 no effect, 100 complete control, read-out: Galium plant response rating; for pest or weed control at 125 g/ha: 125 g ai/ha; for pest or weed control at 500 g/ha: 500 g ai/ha
Summary of the method: as §1

[9] = test system: pigweed (Amaranthus retroflexus); assay: as above; settings: Amaranthus retroflexus, post-emergence, 240 h, 0 to 100 scale, 0 no effect, 100 complete control, read-out: Pigweed plant response rating; for pest or weed control at 125 g/ha: 125 g ai/ha; for pest or weed control at 500 g/ha: 500 g ai/ha
Summary of the method: as §1

[10] = test system: foxtail, giant (giant foxtail, Setaria faberii); assay: Test A preemergence, directed soil spray, visual injury rating; settings: Setaria faberi, pre-emergence, 240 h, 0 is no effect, 100 is complete control, read-out: Plant response rating (0 to 100 scale), Foxtail, Giant; for pest or weed control at 125 g/ha: 125 g ai/ha; for pest or weed control at 500 g/ha: 500 g ai/ha
Summary of the method: as §1

[11] = test system: ryegrass, It. (Italian ryegrass, Lolium multiflorum); assay: as above; settings: Lolium multiflorum, pre-emergence, 240 h, 0 is no effect, 100 is complete control, read-out: Plant response rating (0 to 100 scale), Ryegrass, It.; for pest or weed control at 125 g/ha: 125 g ai/ha; for pest or weed control at 500 g/ha: 500 g ai/ha
Summary of the method: as §1

[12] = test system: ragweed (common ragweed, Ambrosia elatior); assay: as above; settings: Ambrosia artemisiifolia, pre-emergence, 240 h, 0 is no effect, 100 is complete control, read-out: Plant response rating (0 to 100 scale), Ragweed; for pest or weed control at 125 g/ha: 125 g ai/ha; for pest or weed control at 500 g/ha: 500 g ai/ha
Summary of the method: as §1

kochia (Kochia scoparia) [13] = assay: as above; settings: Bassia scoparia, pre-emergence, 240 h, 0 is no effect, 100 is complete control, read-out: Plant response rating (0 to 100 scale), Kochia; for pest or weed control at 125 g/ha: 125 g ai/ha; for pest or weed control at 500 g/ha: 500 g ai/ha
Summary of the method: as §1

[14] = test system: barnyardgrass (Echinochloa crus-galli); assay: as above; settings: Echinochloa crus-galli, pre-emergence, 240 h, 0 is no effect, 100 is complete control, read-out: Plant response rating (0 to 100 scale), Barnyardgrass; for pest or weed control at 125 g/ha: 125 g ai/ha; for pest or weed control at 500 g/ha: 500 g ai/ha
Summary of the method: as §1

[15] = test system: pigweed (Amaranthus retroflexus); assay: as above; settings: Amaranthus retroflexus, pre-emergence, 240 h, 0 is no effect, 100 is complete control, read-out: Plant response rating (0 to 100 scale), Pigweed; for pest or weed control at 125 g/ha: 125 g ai/ha; for pest or weed control at 500 g/ha: 500 g ai/ha
Summary of the method: as §1

[16] = test system: ducksalad (Heteranthera limosa); assay: Test B flooded paddy test, visual rating; settings: Heteranthera limosa, 360 h; Flood, 250 g ai/ha, applied to paddy water, rated after 13 to 15 d; read-out: Ducksalad plant response rating (0 to 100 scale, 0 is no effect, 100 is complete control)
Summary of the method: (§2)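 Plants grown to the 2-leaf stage. At treatment, pots were flooded to 3 cm above the soil, compound was applied directly to the paddy water, and that depth was held throughout. After 13 to 15 d in the greenhouse, response was rated visually against controls on a 0 (no effect) to 100 (complete control) scale.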

rice (Oryza sativa) = assay: Test B flooded paddy test, visual rating; settings: Oryza sativa, 360 h; Flood, 250 g ai/ha, applied to paddy water, rated after 13 to 15 d; read-out: Rice plant response rating (0 to 100 scale, 0 is no effect, 100 is complete control)
Summary of the method: as §2

[17] = test system: barnyardgrass (Echinochloa crus-galli); assay: Test B flooded paddy test, visual rating; settings: Echinochloa crus-galli, 360 h; Flood, 250 g ai/ha, applied to paddy water, rated after 13 to 15 d; read-out: Barnyardgrass plant response rating (0 to 100 scale, 0 is no effect, 100 is complete control)
Summary of the method: as §2

## Cc1nn(C)c(=O)c(-c2cccc3snc(C)c23)c1O [Compound 25, 5-hydroxy-2,6-dimethyl-4-(3-methyl-1,2-benzisothiazol-4-yl)-3 (2H)-pyridazinone]
[1]
  pest or weed control at 125 g/ha: 30%
  pest or weed control at 500 g/ha: 80%
[2]
  plant injury at 125 g/ha: 20%
  plant injury at 500 g/ha: 30%
Corn (Zea mays)
  plant injury at 125 g/ha: 0%
  plant injury at 500 g/ha: 20%
[3]
  pest or weed control at 125 g/ha: 20%
  pest or weed control at 500 g/ha: 70%
[4]
  pest or weed control at 125 g/ha: 20%
  pest or weed control at 500 g/ha: 30%
[5]
  pest or weed control at 125 g/ha: 70%
  pest or weed control at 500 g/ha: 90%
Kochia (Kochia scoparia) [6]
  pest or weed control at 125 g/ha: 100%
  pest or weed control at 500 g/ha: 100%
[7]
  pest or weed control at 125 g/ha: 20%
  pest or weed control at 500 g/ha: 40%
[8]
  pest or weed control at 125 g/ha: 80%
  pest or weed control at 500 g/ha: 90%
[9]
  pest or weed control at 125 g/ha: 90%
  pest or weed control at 500 g/ha: 90%
[10]
  pest or weed control at 125 g/ha: 30%
  pest or weed control at 500 g/ha: 80%
[11]
  pest or weed control at 125 g/ha: 0%
  pest or weed control at 500 g/ha: 30%
[12]
  pest or weed control at 125 g/ha: 40%
  pest or weed control at 500 g/ha: 70%
Kochia (Kochia scoparia) [13]
  pest or weed control at 125 g/ha: 100%
  pest or weed control at 500 g/ha: 100%
[14]
  pest or weed control at 125 g/ha: 0%
  pest or weed control at 500 g/ha: 40%
[15]
  pest or weed control at 125 g/ha: 80%
  pest or weed control at 500 g/ha: 100%
[16]
  pest or weed control at 250 g/ha: 0%
Rice (Oryza sativa)
  plant injury at 250 g/ha: 0%
[17]
  pest or weed control at 250 g/ha: 0%

## Cc1ccc2sccc2c1-c1c(O)c(C)nn(C)c1=O [Compound 29, 5-hydroxy-2,6-dimethyl-4-(5-methylbenzo[b]thien-4-yl)-3(2H)-pyridazinone]
[1]
  pest or weed control at 125 g/ha: 20%
  pest or weed control at 500 g/ha: 80%
[2]
  plant injury at 125 g/ha: 20%
  plant injury at 500 g/ha: 30%
Corn (Zea mays)
  plant injury at 125 g/ha: 20%
  plant injury at 500 g/ha: 50%
[3]
  pest or weed control at 125 g/ha: 100%
  pest or weed control at 500 g/ha: 90%
[4]
  pest or weed control at 125 g/ha: 70%
  pest or weed control at 500 g/ha: 80%
[5]
  pest or weed control at 125 g/ha: 80%
  pest or weed control at 500 g/ha: 80%
Kochia (Kochia scoparia) [6]
  pest or weed control at 125 g/ha: 90%
  pest or weed control at 500 g/ha: 100%
[7]
  pest or weed control at 125 g/ha: 20%
  pest or weed control at 500 g/ha: 70%
[8]
  pest or weed control at 125 g/ha: 90%
  pest or weed control at 500 g/ha: 100%
[9]
  pest or weed control at 125 g/ha: 90%
  pest or weed control at 500 g/ha: 100%
[10]
  pest or weed control at 125 g/ha: 10%
  pest or weed control at 500 g/ha: 90%
[11]
  pest or weed control at 125 g/ha: 90%
  pest or weed control at 500 g/ha: 100%
[12]
  pest or weed control at 125 g/ha: 30%
  pest or weed control at 500 g/ha: 90%
Kochia (Kochia scoparia) [13]
  pest or weed control at 125 g/ha: 20%
  pest or weed control at 500 g/ha: 90%
[14]
  pest or weed control at 125 g/ha: 10%
  pest or weed control at 500 g/ha: 90%
[15]
  pest or weed control at 125 g/ha: 40%
  pest or weed control at 500 g/ha: 100%
[16]
  pest or weed control at 250 g/ha: 0%
Rice (Oryza sativa)
  plant injury at 250 g/ha: 0%
[17]
  pest or weed control at 250 g/ha: 0%
